Data published in ChEMBL document CHEMBL1133028, “The synthesis and in vitro cytotoxic studies of novel oxa-spermidine derivatives and homologues” (2000).

Assays:
Assay type in all cases: functional
IGROV-1 = assay: Compound was evaluated for the growth inhibition of […] ovarian cell lines; settings: Homo sapiens
OVCAR-5 = assay: Compound was evaluated for the growth inhibition of OVCAR-5 ovarian cell lines; settings: Homo sapiens
[1] = tested on: Panel breast (Carcinoma cell lines); assay: (§1) Compound was evaluated for the growth inhibition of cell cultures derived from human breast cancer tumors
[2] = tested on: Panel colon (Carcinoma cell lines); assay: Compound was evaluated for the growth inhibition of cell cultures derived from human colon cancer tumors
[3] = tested on: Panel CNS (Carcinoma cell lines); assay: Compound was evaluated for the growth inhibition of cell cultures derived from human Cns cancer tumors
Ovarian cancer cell line = assay: (§2) Compound was evaluated for the growth inhibition of cell cultures derived from human ovarian cancer tumors
[4] = tested on: Lung cancer tumor cell line; assay: Compound was evaluated for the growth inhibition of cell cultures derived from human non small cell lung cancer tumors
leukaemia cell line = assay: Compound was evaluated for the growth inhibition of cell cultures derived from human leukemia tumors
Melanoma tumor cell line = assay: Compound was evaluated for the growth inhibition of cell cultures derived from human melanoma tumors
Homo sapiens [5] = species: Homo sapiens; assay: Compound was evaluated for the growth inhibition of cell cultures derived from human prostate cancer tumors
[6] = tested on: Panel renal (Carcinoma cell lines); assay: Compound was evaluated for the growth inhibition of cell cultures derived from human renal cancer tumors
Tumor Cell line [7] = assay: Mean values over all human tumor cell lines were determined
Tumor Cell line [8] = assay: Compound was evaluated for the growth inhibition of a panel of human tumor cell lines
[9] = as §1
Homo sapiens [10] = species: Homo sapiens; assay: as §2
Tumor Cell line [11] = assay: Compound was evaluated for the growth inhibition against panel of human tumor cell lines

With `Cc1c(C)c(S(=O)(=O)N(CCCCCN2C(=O)c3ccccc3C2=O)OCCCN2C(=O)c3ccccc3C2=O)c(C)c2c1OC(C)(C)CC2` the GI50 (IGROV-1) was 3.27 µM and the GI50 (OVCAR-5) was 52.5 µM.

Compound `Cc1c(C)c(S(=O)(=O)N(CCCCCCN2C(=O)c3ccccc3C2=O)OCCCN2C(=O)c3ccccc3C2=O)c(C)c2c1OC(C)(C)CC2` has a GI50 (IGROV-1) of 3.27 µM and a GI50 (OVCAR-5) of 52.5 µM.

Compound `Cc1cc(C)c(S(=O)(=O)N(CCCCCN)OCCCN)c(C)c1` has a GI50 [1] of 20.2 µM, a GI50 [2] of 16.2 µM and a GI50 [3] of 16.9 µM. The GI50 (Ovarian cancer cell line) was 17.9 µM, the GI50 [4] was 16.9 µM and the GI50 (leukaemia cell line) was 15.3 µM. For the same compound, the GI50 (Melanoma tumor cell line) was 18.2 µM, the GI50 (Homo sapiens [5]) was 15.7 µM and the GI50 [6] was 16.1 µM. For the same compound, the GI50 (Tumor Cell line [7]) was 15.2 µM.

With `Cc1c(C)c(S(=O)(=O)N(CCCCCN)OCCCN)c(C)c2c1OC(C)(C)CC2` the GI50 [1] was 10 µM, the GI50 [2] was 9.8 µM and the GI50 [3] was 9.6 µM. For the same compound, the GI50 (Ovarian cancer cell line) was 12.7 µM, the GI50 [4] was 11.5 µM and the GI50 (leukaemia cell line) was 3.9 µM. For the same compound, the GI50 (Melanoma tumor cell line) was 10.9 µM, the GI50 (Homo sapiens [5]) was 16.1 µM and the GI50 [6] was 16.5 µM. It also gave a GI50 (Tumor Cell line [7]) of 11.2 µM.

Work on `Cc1cc(C)c(S(=O)(=O)N(CCCN)OCCCN)c(C)c1` yielded a GI50 (Tumor Cell line [8]) greater than 100 µM.

For `Cc1c(C)c(S(=O)(=O)N(CCCCN)OCCCN)c(C)c2c1OC(C)(C)CC2`, the GI50 [1] was 28.4 µM, the GI50 [2] was 20.3 µM and the GI50 [3] was 18 µM. It also gave a GI50 (Ovarian cancer cell line) of 13.5 µM, a GI50 [4] of 15.3 µM and a GI50 (leukaemia cell line) of 26.8 µM. The GI50 (Melanoma tumor cell line) was 19.1 µM, the GI50 (Homo sapiens [5]) was 14.5 µM and the GI50 [6] was 20.9 µM. The GI50 (Tumor Cell line [7]) was 19.6 µM.

`Cc1c(C)c(S(=O)(=O)N(CCCCCON)OCCCN)c(C)c2c1OC(C)(C)CC2` gave a GI50 [9] of 13.8 µM, a GI50 [2] of 12.8 µM and a GI50 [3] of 14.9 µM. It also gave a GI50 (Homo sapiens [10]) of 12.4 µM, a GI50 [4] of 13.5 µM and a GI50 (leukaemia cell line) of 6.3 µM. It also gave a GI50 (Melanoma tumor cell line) of 13.7 µM, a GI50 (Homo sapiens [5]) of 10.6 µM and a GI50 [6] of 14.3 µM. For the same compound, the GI50 (Tumor Cell line [7]) was 12.5 µM.

`NCCCNOCCCN` showed a GI50 (Tumor Cell line [11]) greater than 100 µM.

Work on `Cc1c(C)c(S(=O)(=O)N(CCCN2C(=O)c3ccccc3C2=O)OCCCN2C(=O)c3ccccc3C2=O)c(C)c2c1OC(C)(C)CC2` yielded a GI50 (IGROV-1) of 3.27 µM and a GI50 (OVCAR-5) of 52.5 µM.

In the case of `Cc1cc(C)c(S(=O)(=O)N(CCCCN)OCCCN)c(C)c1`, the GI50 [1] is reported as 17.8 µM, the GI50 [2] is reported as 13.3 µM and the GI50 [3] is reported as 18.1 µM. For the same compound, the GI50 (Homo sapiens [10]) was 17.2 µM, the GI50 [4] was 18.5 µM and the GI50 (leukaemia cell line) was 11.8 µM. It also gave a GI50 (Melanoma tumor cell line) of 18.1 µM, a GI50 (Homo sapiens [5]) of 14.5 µM and a GI50 [6] of 18.2 µM. For the same compound, the GI50 (Tumor Cell line [7]) was 16.4 µM.

`Cc1c(C)c(S(=O)(=O)N(CCCCN2C(=O)c3ccccc3C2=O)OCCCN2C(=O)c3ccccc3C2=O)c(C)c2c1OC(C)(C)CC2` gave a GI50 (IGROV-1) of 3.27 µM and a GI50 (OVCAR-5) of 52.5 µM.

In the case of `Cc1c(C)c(S(=O)(=O)N(CCCN)OCCCN)c(C)c2c1OC(C)(C)CC2`, the GI50 [1] is reported as 15.8 µM, the GI50 [2] is reported as 13.8 µM and the GI50 [3] is reported as 12.9 µM. For the same compound, the GI50 (Ovarian cancer cell line) was 12.6 µM, the GI50 [4] was 14.2 µM and the GI50 (leukaemia cell line) was 13 µM. The GI50 (Melanoma tumor cell line) was 14.8 µM, the GI50 (Homo sapiens [5]) was 14 µM and the GI50 [6] was 14.7 µM. For the same compound, the GI50 (Tumor Cell line [7]) was 14 µM.

For `Cc1cc(C)c(S(=O)(=O)N(CCCCCCN)OCCCN)c(C)c1`, the GI50 [1] was 23 µM, the GI50 [2] was 16.7 µM and the GI50 [3] was 16.5 µM. The GI50 (Ovarian cancer cell line) was 18 µM, the GI50 [4] was 22.4 µM and the GI50 (leukaemia cell line) was 19.5 µM. For the same compound, the GI50 (Melanoma tumor cell line) was 15.7 µM, the GI50 (Homo sapiens [5]) was 15.4 µM and the GI50 [6] was 17.5 µM. It also gave a GI50 (Tumor Cell line [7]) of 18.3 µM.

For `Cc1c(C)c(S(=O)(=O)N(CCCCCCN)OCCCN)c(C)c2c1OC(C)(C)CC2`, the GI50 [1] was 10.2 µM, the GI50 [2] was 7.2 µM and the GI50 [3] was 5.6 µM. The GI50 (Ovarian cancer cell line) was 4.7 µM, the GI50 [4] was 6.3 µM and the GI50 (leukaemia cell line) was 4.1 µM. It also gave a GI50 (Melanoma tumor cell line) of 10.7 µM, a GI50 (Homo sapiens [5]) of 16.3 µM and a GI50 [6] of 11.3 µM. It also gave a GI50 (Tumor Cell line [7]) of 8.5 µM.
